In series [1] the test system is Fusobacterium nucleatum. Put plainly: Antibacterial activity against Fusobacterium nucleatum ATCC 23726 assessed as bacterial growth inhibition incubated for 48 hrs by broth dilution susceptibility test. The series is classed as functional. Background: In broth dilution the organism is exposed to a series of concentrations in liquid medium.
The test system of series [2] is Fusobacterium nucleatum. Put plainly: Antibacterial activity against Fusobacterium nucleatum ATCC 23726 assessed as bacterial growth inhibition incubated for 72 hrs by turbidimeter analysis. The class given is functional, organism-based.
Series [3] relates to Peptostreptococcus anaerobius. The experiment in a line: Antibacterial activity against Peptostreptococcus anaerobius ATCC 27337 assessed as bacterial growth inhibition incubated for 48 hrs by broth dilution susceptibility test. The class given is functional.
Series [4] relates to HCT-116. The experiment in a line: Antiproliferative activity against human HCT-116 cells assessed as inhibition of cell growth incubated for 48 hrs by CCK-8 assay. The settings on record: HCT-116, 48 h. The series is classed as functional, cell-based. (Tetrazolium dyes change colour on reduction, which living cells bring about.)
Series [5] relates to Enterococcus faecalis. Put plainly: Antibacterial activity against Enterococcus faecalis ATCC 29212 assessed as bacterial growth inhibition incubated for 48 hrs by broth dilution susceptibility test. The class given is functional.
For series [6], the system named is Staphylococcus aureus. Put plainly: Antibacterial activity against Staphylococcus aureus ATCC 6538 assessed as bacterial growth inhibition incubated for 48 hrs by broth dilution susceptibility test. The class given is functional.
Series [7] deals with MC-38. Put plainly: Antiproliferative activity against mouse MC-38 cells assessed as inhibition of cell growth incubated for 48 hrs by CCK-8 assay. The class given is functional, cell-based. The settings on record: MC-38, 48 h.
The test system of series [8] is Escherichia coli. The experiment in a line: Antibacterial activity against Escherichia coli […] assessed as bacterial growth inhibition incubated for 48 hrs by broth dilution susceptibility test. The series is classed as functional.
Series [9] is described as follows: Cytotoxicity against human L02 cells assessed as inhibition of cell growth incubated for 48 hrs by CCK-8 assay. The class given is toxicity, cell-based.
The subject of series [10] is Salmonella enterica subsp. enterica serovar Paratyphi B. Put plainly: Antibacterial activity against Salmonella paratyphi B ATCC CMCC50094 assessed as bacterial growth inhibition incubated for 48 hrs by broth dilution susceptibility test. The series is classed as functional.
Series [11] deals with Shigella flexneri. Put plainly: Antibacterial activity against Shigella flexneri ATCC 12022 assessed as bacterial growth inhibition incubated for 48 hrs by broth dilution susceptibility test. The class given is functional.
Series [12] relates to Fusobacterium nucleatum. The experiment in a line: Antibacterial activity against Fusobacterium nucleatum ATCC 23726 assessed as bacterial growth inhibition at 8 ug/ml incubated for 72 hrs by turbidimeter analysis. The settings on record: dose 8.0 µg/ml. The series is classed as functional, organism-based.
A short description of series [13]: Cytotoxicity against HUVEC cells assessed as inhibition of cell growth incubated for 48 hrs by CCK-8 assay. The series is classed as toxicity, cell-based. Conditions: human.
The test system of series [14] is Lactobacillus acidophilus. The experiment in a line: Antibacterial activity against Lactobacillus acidophilus ATCC CGMCC 1.577 assessed as bacterial growth inhibition incubated for 48 hrs by broth dilution susceptibility test. The series is classed as functional.
Series [15] relates to Akkermansia muciniphila. The experiment in a line: Antibacterial activity against Akkermansia muciniphila ATCC BAA-835 assessed as bacterial growth inhibition incubated for 48 hrs by broth dilution susceptibility test. The series is classed as functional.

A word on the MIC50: it is an inhibitory concentration at the 50% level, which refers to growth in some studies and to a panel of isolates in others. Broadly, the pIC50 is −log10 of the IC50, conventionally taken in molar units. One may read the IC50 as the midpoint of a concentration-inhibition curve.

pIC50: −log10 of the molar value. Converted amounts (≈) assume the structure as drawn. The source made the active and inactive calls. No cut-off for these calls is given here.

For the compound `O=C(Nc1ccc([N+](=O)[O-])c(Cl)c1)c1ccc([N+](=O)[O-])cc1F`, the MIC50 in series [1] was > 64 µg/mL. The same measure, in the same setting: for `COC(=O)OCc1ccc(NC(=O)c2ccc(C(F)(F)F)cc2[N+](=O)[O-])cc1` the value was > 64 µg/mL; for `NC(=O)c1ccc(NC(=O)c2ccc(C(F)(F)F)cc2)cc1`, > 64 µg/mL; for `O=C(NCc1ccccc1C(F)(F)F)c1ccc(C(F)(F)F)cc1[N+](=O)[O-]`, > 64 µg/mL. On the same count and under the same terms, then `CS(=O)(=O)c1ccc(C(=O)C2C(=O)CCCC2=O)c(Cl)c1COCC(F)(F)F` [TEMBOTRIONE], with > 64 µg/mL. For the compound `O=C1OCCN1/N=C/c1ccc([N+](=O)[O-])o1` [FURAZOLIDONE], the MIC50 in series [1] stood at 16 µg/mL (≈ 71.1 µM).

As for `O=C(Nc1ccon1)c1ccc([N+](=O)[O-])c(Br)c1`, the MIC50 in series [1] is > 64 µg/mL. The same measure, in the same setting: for `O=C(Nc1cc(Cl)cc([N+](=O)[O-])c1)c1ccc(C(F)(F)F)cc1[N+](=O)[O-]` the value was > 64 µg/mL. For the compound `O=C(OCc1ccc([N+](=O)[O-])o1)c1ccc([N+](=O)[O-])c(Br)c1`, the Activity result in series [2] was “Dose-Dependent Effect”. For the same compound, the MIC50 in series [3] is > 64 µg/mL; in series [5], > 64 µg/mL; in series [1], 4 µg/mL (≈ 10.8 µM); in series [6] it was > 64 µg/mL; in series [8], > 64 µg/mL; in [10] it was 64 µg/mL (≈ 172 µM). Moreover, the MIC50 in [11] is > 64 µg/mL; in series [14], 64 µg/mL (≈ 172 µM); in series [15] it was > 64 µg/mL. In addition, the pIC50 is 4.18 in [4] and 4.38 in series [7]. Also, the IC50 at 48 h turned out to be 175 µM in series [9] and 31 µM in [13]. Also, the result in [12] was Active. In the case of `Cc1cc(=O)oc2ccc(OC(=O)c3ccc([N+](=O)[O-])c(F)c3)cc12`, the MIC50 in [1] was > 64 µg/mL. On the same count and under the same terms, then `Cl.Cl.Cl.O[C@@H](COc1cccc2ncccc12)CN1CCN([C@@H]2c3ccccc3[C@@H]3[C@H](c4ccccc42)C3(F)F)CC1` [ZOSUQUIDAR TRIHYDROCHLORIDE], with 16 µg/mL. Same read-out and setting: for `CS(=O)(=O)c1ccc(C(=O)C2C(=O)CCCC2=O)c([N+](=O)[O-])c1` [MESOTRIONE] the value was 32 µg/mL (≈ 94.3 µM). On the same count and under the same terms, for `NC(=O)c1ccc(NC(=O)c2ccc(C(F)(F)F)cc2[N+](=O)[O-])cc1` the value was > 64 µg/mL; for `OC1(c2ccc(Cl)c(C(F)(F)F)c2)CCN(CCCC(c2ccc(F)cc2)c2ccc(F)cc2)CC1` [PENFLURIDOL], 8 µg/mL (≈ 15.3 µM). Consider `O=C(Nc1ccon1)c1ccc([N+](=O)[O-])cc1I`, for which, in series [1], the MIC50 is > 64 µg/mL. As to `O=C(CCc1ccc([N+](=O)[O-])cc1)Nc1ccon1`, in series [1], the MIC50 is > 64 µg/mL.

The values are drawn from ChEMBL document CHEMBL5375955, “Discovery of New Fusobacterium nucleatum Inhibitors to Attenuate Migratory Capability of Colon Cancer Cells by the Drug Repositioning Strategy” (J Med Chem, 2023).
